Experiments:
Type in all cases: cell-based, human
U937 cells [1] = experiment: CD11b surface differentiation marker expression (flow cytometry); conditions: 1 mM SB, 100 nM FP, 48 h
Experimental: Differentiation studies. Expression of the monocytic differentiation marker, CD11b, was monitored by direct immunofluorescence staining and flow cytometric analysis as previously described [Freemerman et al. 1997]. Following drug treatment, suspension and adherent cells were enumerated by a Coulter Counter and 2×10^6 cells were pelleted by centrifugation. The supernatant was aspirated and the cells were resuspended in 300 μl of ice-cold PBS. Two 100 μl aliquots from each sample were then combined with either phycoerythrin-1 (10 μl) or the IgG control. Samples were incubated for 20 min at 4° C. and diluted in PBS (1 ml). Sample data were collected using a Becton Dickinson FACScan flow cytometer and analyzed with Verity Winlist Software (Verity; Topsham, Me.). […] U937 cells were transfected with a full-length p21^WAF1/CIP1 promoter (base pairs 1-2326) as described by Chinery et al. [Chinery et al. 1997] utilizing electroporation (Eppendorf Multiporator, 620V, 60 μs) in hypoosmolar buffer. In each experiment, pSV-βgal (Promega), containing the β-galactosidase gene under the control of the constitutively active SV40 promoter and enhancer, was co-transfected with the luciferase reporter at a ratio of 1:5 (w/w) to normalize for transfection efficiency. The cells were incubated overnight in complete media and treated with 10 nM PMA, 100 nM FP, or 10 nM PMA/100 nM FP for 3 or 6 h. At indicated times, cells were washed in serum-free media, resuspended in 0.25M Tris-HCl pH 7.8, lysed by rapid freeze-thaw, centrifuged and the supernatant frozen at −70° C. Lysates (20 μL) were mixed with luciferase assay reagent (100 μL) and monitored for 20 seconds in a luminometer (Monolight 2010). For β-galactosidase activity, lysates (50 μL) were mixed in triplicate with an equal volume of […] assay buffer (2×) in a 96-well plate and incubated overnight. The reaction was terminated by addition of NaCO3 and absorbance was measured at 405 nm in a Vmax plate reader (Molecular Devices). Activity was determined by comparison to a standard curve. […]

cyclin D1 = experiment: Western analysis of cyclin D1 in U937 cells
Experimental: (§1) Alternatively, whole cell-pellets were washed twice in PBS, resuspended in PBS, and lysed by the addition of I volume of loading buffer. Lysates were boiled for 10 min, centrifuged at 12,800 g for 5 min and quantified using Coomassie protein assay reagent (Pierce, Rockfold, Ill.). 25 μg of total proteins per point were separated by SDS-PAGE and electro-blotted to nitrocellulose. The blots were blocked in 5% non-fat milk in PBS-T and probed for 1 h with the appropriate dilution of primary antibody. Blots were washed 3×10 min in PBS-T and then incubated with a 1:2000 dilution of peroxidase-conjugated secondary antibody for 1 h at room temperature. Blots were again washed 3×10 min in PBS-T and then developed by enhanced chemiluminesence. Where indicated, blots were stripped and re-probed with antibodies directed against actin.
Primary antibodies for both p21^WAF1/CIP1 and p27^KIP1 (Transduction Laboratories, Lexington, Ky.) were used in a 1:1000 dilution; PARP (1:1000; Oncogene Research Products, Cambridge, Mass.); pro-caspase 3 (1:1000; Transduction Laboratories); cytochrome c (1:2000; Pharmingen); bcl-2 (1:2000; DAKO, Denmark); bax (1:1000; Santa Cruz Biotechnology, Inc., Santa Cruz, Calif.); bid (1:1000; Cell Signaling, Beverly, Mass.); XIAP (1:1000; Cell Signaling); Mcl-1 (1:1000; Pharmingen); bak (1:1000; Calbiochem); c-Myc (1:1000; Pharmingen, San Diego, Calif.); actin (1:2000; Sigma Chemicals, St. Louis, Mo.); cyclins-D1, -A and -E (1:1000; Pharmingen); pRb, underP-pRb, pRb-CDK2 and pRb-CDK4 (all 1:1000; Pharmingen); Ac-H3 and Ac-H4 (both 1:1000; Upstate Biotechnology, Lake Placid, N.Y.); E2F-1 (Upstate Biotechnology). Secondary antibodies conjugated to horseradish peroxidase were obtained from Kirkegaard and Perry Laboratories, Inc. (Gaithersburg, Md.). Coomassie protein assay reagent was purchased from Pierce (Rockford, Ill.), and an enhanced chemiluminescence kit was obtained from New England Nuclear (Boston, Mass.). […]

Mcl-1 = experiment: Western analysis of Mcl-1 in U937 cells; conditions: 100 nM FP, 1 mM SB, 12 and 24 hours
Experimental: as §1, with “actin. […]” for “actin.”

U937 cells [2] = experiment: cytochrome c release into the cytosol; conditions: FP 100 nM; for cytochrome c release: SB 1 mM, alone from 1 hr, both drugs ≧6 hr
Experimental: Cytochrome c release. The assay for cytochrome c release was performed as previously described by Single et al. [1998] with modifications. At designated times following drug treatment, 4×10^6 cells were washed with PBS and resuspended in 50 μl of assay buffer (75 mM NaCl, 1 mM NaH2P0^4, 8 mM Na2HP0^4, 1 mM EDTA, 250 mM sucrose) containing digitonin (700 μg/ml). Three minutes following addition of digitonin assay buffer, cells were pelleted by centrifugation. The supernatants were transferred to tubes containing 2× Laemmli buffer (50 μl) and boiled for 5 minutes. Proteins were separated by SDS-PAGE as described above.
Analysis of cytosolic cytochrome c. A previously described technique was employed.^32 After treatment, cells (5×10^7/condition) were harvested by centrifugation at 600 g for 10 min at 4° C. The S-100, or cytosolic fraction, was prepared as described with minor modifications. Cell pellets were washed once with ice-cold phosphate-buffered saline and resuspended in five volumes of buffer A (20 mM Hepes-KOH, pH 7.5, 10 mM KCl, 1.5 mM MgCl2, 1 mM sodium EDTA, 1 mM sodium EGTA, 1 mM dithiothreitol, 0.1 mM phenylmethlysufonyl fluoride, and 250 mM sucrose; all Sigma. After chilling for 30 min on ice, the cells were disrupted by 15 strokes of a Potter-Elvehjem (PTFE-pestle) homogenizer. The homogenate was then centrifuged twice to remove unbroken cells and nuclei (3000 g for 10 min at 4° C.). The resulting supernatant was further centrifuged at 100,000 g for 1 h at 4° C., and the supernatants, designated as S-100 fractions, were immediately subjected to Western analysis as described above. For each condition, 25 μg of the S-100 fraction was loaded on the gel, and probed with the corresponding antibody.

Bcl-2 = experiment: Western analysis of Bcl-2 cleavage in U937 cells; conditions: SB 1 mM, FP 100 nM, 12 and 24 hr
Experimental: as §1, with “actin. […]” for “actin.”

Structure (SMILES)	expression of the differentiation marker CD11b (U937 cells [1])	FP concentration at which reduction in cyclin D1 levels was first observed (cyclin D1; 12 and 24 hours treatment) [nM]	FP concentration at which reduction in cyclin D1 levels was virtually complete (cyclin D1; 12 and 24 hours treatment) [nM]	levels of Mcl-1 (Mcl-1)	release of cytochrome c into the cytosol (U937 cells [2]; PMA 10 nM, 6 h)	cytochrome c release (U937 cells [2])	cleavage of Bcl-2 (rapidly migrating species) (Bcl-2)	cyclin D1 protein (cyclin D1; SB 1 mM 24 hours, FP and SB 12 hours)
CN1CC[C@H](c2c(O)cc(O)c3c(=O)cc(-c4ccccc4Cl)oc23)[C@H](O)C1 [FP, Flavopiridol]	not accompanied by an increase in CD11b expression	100	300	reductions in levels of Mcl-1	some effect	increased modestly	faintly discerned	–
CCCC(=O)[O-].[Na+] [SB, sodium butyrate]	increased expression of the differentiation marker CD11b	–	–	minimal effects	–	increased modestly	faintly discerned	moderate decrease
